According to a melting point compilation (Tetko et al.; mined from patent text by program, amines drawn as free bases though some values may be those of a salt):

Compared with `[O-][N+]1=C(c2ccccc2Cl)c2nc(Cl)ccc2-n2cnnc2C1`, `CN1Cc2ccccc2C(=O)c2c(CC(=O)O)cccc21` is lower in melting point: 242 to 244 °C for the first, 178 to 181 °C for the second.

First: COC(=O)c1cc(OC)c(N=Nc2ccccc2)c(OC)c1
Second: COc1cc(C(=O)N2Cc3cccn3Cc3ccccc32)ccc1-n1c(C)ccc1C
The melting point of the first is lower: 115 to 116 °C for the first, 141 to 144 °C for the second.

First: CC(C#N)CC(=O)c1cccc(Cl)c1 (stereo not drawn)
Second: CC(C(=O)NC(C)(C)C)c1cc(Cl)ccc1C(=O)O (stereo not drawn)
The melting point of the first is lower: 72 to 75 °C for the first, 175 to 178 °C for the second.

Compared with `CC=CCn1c(Nc2cc(C)cc(C)c2)c(CC)c(=O)[nH]c1=O`, `CC(=O)Nc1cc(-n2c(=O)cc(C(F)(F)F)[nH]c2=O)c(F)cc1Cl` is higher in melting point: 190 to 192 °C for the first, 264 to 266 °C for the second.

Going from `CCOC(=O)CC(C)(O)c1ccc(C2CCCCC2)cc1` (stereo not drawn) to `O=C(COC1CCCCO1)c1ccc(Cl)cc1` (stereo not drawn), the melting point rises from 45 °C to 57 °C.

First: CCC1SC(=O)NN=C1c1ccc(OC(F)F)c(OC)c1 (stereo not drawn)
Second: COc1ccc(CC2SC(=O)NC2=O)cc1NC(=O)Cc1ccc(C(F)(F)F)cc1 (stereo not drawn)
The melting point of the first is lower: 97 °C for the first, 147 to 149 °C for the second.

First: COc1cccc(C(=O)NCc2cccc3c2CN(C2CCC(=O)NC2=O)C3=O)c1 (stereo not drawn)
Second: O=C(CN1CCC(OCc2ccccc2)CC1)Nc1ccc2c(c1)OCC(=O)N2
The melting point of the first is higher: 244 to 246 °C for the first, 238 to 240 °C for the second.

First: COc1cc2ccccc2cc1NC(=O)N1CCN(c2cc(C)cc(C)c2)CC1
Second: COc1ccc(N2CCN(c3c(C)c(C)c4c(c3C)C(O)(c3cccs3)C(C)(C)O4)CC2)cc1 (stereo not drawn)
The melting point of the first is lower: 105 to 107 °C for the first, 154 to 155 °C for the second.

First: COc1ncccc1NC(=NC#N)NC(NC(=O)c1cc(F)cc(F)c1)C(C)(Cl)Cl (stereo not drawn)
Second: CC(C)(C)c1ccc(C(=O)Nc2ccc([N+](=O)[O-])cc2C(=O)O)cc1
The melting point of the first is lower: 125 to 126 °C for the first, 245 to 249 °C for the second.

First: COc1c(N2CCC(=NO)CC2)c(F)cc2c(=O)c(C(=O)O)cn(C3CC3)c12
Second: Cc1c(N2CCC(C(N)c3ccccn3)C2)c(F)c(N)c2c(=O)c(C(=O)O)cn(C3CC3F)c12 (stereo not drawn)
The melting point of the first is higher: 258 to 261 °C for the first, 127 to 129 °C for the second.

Compared with `CS(=O)(=O)Nc1cc2occc(=O)c2cc1Oc1ccccc1NC=O`, `CCCOc1ccccc1-c1nc2nc(NCCCS(C)(=O)=O)ncc2c(=O)[nH]1` is higher in melting point: 203 to 204 °C for the first, 222 to 223 °C for the second.

First: CCCOc1cc2c(cc1C=O)C(C)(C)CCC2(C)C
Second: CCOCCOc1cc(-n2nc(C)c(Cl)c2C)c(F)cc1C#N
The melting point of the first is lower: 51 to 52 °C for the first, 86 °C for the second.

First: O=S(=O)(c1ccc(I)cc1)N1CCCC(c2ccc(Cl)c(C(F)(F)F)c2)=N1
Second: COc1cc(-n2nc(C(F)(F)F)cc2-c2ccc(S(C)(=O)=O)cc2)ccc1Cl
The melting point of the first is lower: 153 to 154 °C for the first, 157 to 158 °C for the second.

Compared with `Fc1c(Cl)cc(C(/C=C/c2ccc3[nH]ccc3c2)C(F)(F)F)cc1Cl` (stereo not drawn), `C=CCC1(C)OC(=S)Nc2ccc(-c3cccc(Cl)c3)cc21` (stereo not drawn) is higher in melting point: 133 to 139 °C for the first, 150 to 151 °C for the second.

Compared with `O=C(Cn1nc(-c2ccccc2O)nc1-c1ccccc1O)N1CCOCC1`, `COC(=O)c1cccc(Oc2nn(Cc3ccccc3)c3ccccc23)n1` is lower in melting point: 149 to 151 °C for the first, 92 to 94 °C for the second.

Compared with `Cn1ncc(N2CCCCC2)c(-c2ccccc2C=O)c1=O`, `CCC1Cn2c(ncc(C(=O)O)c2=O)-c2ccccc21` (stereo not drawn) is higher in melting point: 134 to 135 °C for the first, 167 to 169 °C for the second.

Compared with `O=c1[nH]c(=Cc2ccc(OCc3ccncc3)cn2)c(=O)[nH]c1=Cc1ccccc1`, `N#CNc1ccc(OCc2ccccc2)cc1` is lower in melting point: 254 to 255 °C for the first, 105 °C for the second.

Compared with `CCN1C(=O)C(C)(C)C(=O)N(C)c2cc(OCCCn3c(-c4ccccc4)cc4ccccc43)ccc21`, `Cc1oc(-c2ccccc2)nc1CCOc1ccc(Cn2cc(CCC(=O)O)c(-c3ccccc3)n2)cc1` is higher in melting point: 140 to 142 °C for the first, 142 to 143 °C for the second.

Compared with `CCc1cnc2c(NC(=O)c3c(Cl)cccc3Cl)cccc2c1C(=O)O`, `COc1cc(/C=C/C(=O)Nc2ccccc2C(=O)O)ccc1OCC1CCCCC1` is lower in melting point: 231 to 233 °C for the first, 207 to 210 °C for the second.

First: c1ccc(CN2CCCC3(C2)OC(c2ccccc2)(c2ccccc2)c2ccccc23)cc1 (stereo not drawn)
Second: CC1(C)CC(OC(=O)Nc2ccccc2)CC(C)(C)N1CC(OC(=O)Nc1ccccc1)c1ccccc1 (stereo not drawn)
The melting point of the first is lower: 144 to 146 °C for the first, 173 °C for the second.

First: CCC(=O)/C=C/c1cn(-c2ccccc2)nc1OCc1ccc(OCc2nc(-c3ccco3)oc2C)c(OC)c1
Second: COC(=O)c1cc(-c2nc(COc3ccc(CO)cc3OC)c(C)o2)ccc1OS(C)(=O)=O
The melting point of the first is higher: 167 to 168 °C for the first, 126 to 127 °C for the second.

First: Cc1ccccc1CCC(=O)N(C)C(C)C(O)c1ccccc1 (stereo not drawn)
Second: CCOC(=O)C1=C(C)NC(c2ccccc2)=NC1c1ccccc1[N+](=O)[O-] (stereo not drawn)
The melting point of the first is higher: 136 to 137 °C for the first, 102 to 105 °C for the second.

First: O=C(NC1CCCCC1)c1cc2ccncc2[nH]1
Second: COc1ccc2c(=O)c(-c3ccc(OCC(O)CNC4CCCCC4)cc3)coc2c1 (stereo not drawn)
The melting point of the first is higher: 298 to 301 °C for the first, 125 to 126 °C for the second.

First: CC(C)(C)OC(=O)NC(=N)NC(=O)OC(C)(C)C
Second: CC(C)(C)c1cc(C(=O)c2ccc(C(=O)O)s2)cc(C(C)(C)C)c1O
The melting point of the first is lower: 144 °C for the first, 228 to 230 °C for the second.

First: CC(C)C[C@@H](NS(=O)(=O)c1ccc(N2CCC(c3ccccc3)CC2)cc1)C(=O)O
Second: O=C(O)c1ccc(S(=O)(=O)c2ccccc2)cc1
The melting point of the first is higher: 163 to 165 °C for the first, 128 to 132 °C for the second.

First: CCCCc1ccc(NC(=O)CCc2ccccc2)c(=O)n1CC(=O)OC
Second: COC(=O)c1cc(OCc2ccccc2)c(OCc2ccccc2)c(CSCC(=O)O)n1
The melting point of the first is lower: 84 to 85 °C for the first, 135 °C for the second.

First: CN(C)Cc1ccc(CSCCNC(=C[N+](=O)[O-])NCCCN(C)CCN(Cc2ccc(F)cc2)c2ccccn2)o1
Second: CN(C)c1cccc(-c2ccc3nnn(Cc4ccc5ncccc5c4)c3n2)c1
The melting point of the first is lower: 63 °C for the first, 124 to 126 °C for the second.

Compared with `CN(C)c1ccc2cc(-c3ccnc(SCCO)c3C#N)ccc2c1`, `O=C(O)c1ccc2cc(-c3ccc(CC(O)CO)c(C45CC6CC(CC(C6)C4)C5)c3)ccc2c1` (stereo not drawn) is higher in melting point: 210 to 212 °C for the first, 258 °C for the second.

Compared with `CN(C)C(=O)Nc1cc(C(F)(F)F)on1`, `Cc1cc(SC(C)C)c(NC(=O)CCCCSc2nc3cccc(C(F)(F)F)c3o2)c(SC(C)C)n1` is lower in melting point: 126 °C for the first, 118 to 120 °C for the second.

First: CCOC(=O)c1cc(=O)c2c(OCC(O)COc3cccc(C)c3)cccc2o1 (stereo not drawn)
Second: COc1ccccc1OCC(O)CNc1nc(-c2ccccc2)nc2ccccc12 (stereo not drawn)
The melting point of the first is lower: 72 to 74 °C for the first, 138 to 140 °C for the second.

Compared with `CCOC(=O)C1=C(COCc2nnn[nH]2)NC(C)=C(C(=O)OC)C1c1ccccc1Cl` (stereo not drawn), `O=c1[nH]c2ccccc2n(Cc2nnn[nH]2)c1=O` is higher in melting point: 122 to 124 °C for the first, 320 °C for the second.

First: NC1=C2C=NN=C2N(c2ccc([N+](=O)[O-])cc2)CN1c1ccccc1
Second: Cc1cc(C(=O)N2Cc3ccc(C(=O)C(Cl)(Cl)Cl)n3Cc3ccccc32)ccc1I
The melting point of the first is higher: 348 to 349 °C for the first, 163 °C for the second.

First: COc1ccc2oc(Cc3c(Cl)cccc3Cl)c(CC#N)c2c1
Second: COc1ccc(-n2cnc3ccc(-c4nnc(CCc5cccc(F)c5)o4)cc32)cc1
The melting point of the first is higher: 184 °C for the first, 145 to 147 °C for the second.

First: COC(=O)CCc1oc(C)nc1-c1ccc(Cl)cc1
Second: COC(=O)/C=C/c1nc2ccc(Cl)cc2c(=O)o1
The melting point of the first is lower: 74 to 75 °C for the first, 117 to 118 °C for the second.

First: CC(=O)OC1(C(C)=O)CCC2C3CCC4=CC(=O)CCC4(C)C3CCC21C (stereo not drawn)
Second: CC(C)(C)OC(=O)N1CCN(C2CC2)CC1
The melting point of the first is higher: 243 to 245 °C for the first, 65 to 67 °C for the second.

Compared with `COCCCCCCCCCCCC(=O)NCc1ccccc1`, `CCCCCCCCCCCCOc1ccc(C(=O)c2ccc(Cl)cc2)c(O)c1` is lower in melting point: 77.7 to 79.4 °C for the first, 61 to 63 °C for the second.

First: COC12CC(CCOC(=O)c3ccc[nH]3)CN(C)C1Cc1cn(C)c3cccc2c13 (stereo not drawn)
Second: CC(C)N(O)C(=O)CCC1C=CC2=C(Cc3ccccc3CO2)C1=O (stereo not drawn)
The melting point of the first is higher: 148 to 149 °C for the first, 118 °C for the second.

Going from `CCC12CCC(c3ccc(Cl)cc3)(OC1)OC2` to `Cc1ccc(CNCC2(F)CCN(C(=O)c3ccc(F)c(F)c3)CC2)nc1`, the melting point rises from 78 °C to 158 °C.

Compared with `CC(C)(Cn1cnc2c(N)nc3ccccc3c21)CC1(C)OCCO1`, `Nc1ncnc2c1c(-c1ccc(Oc3ccccc3CN3CCOCC3)cc1)cn2C1CCOC1` (stereo not drawn) is higher in melting point: 153 to 155 °C for the first, 169 to 171 °C for the second.

Compared with `CCOC(=O)C(NC(=O)CCl)c1cscn1` (stereo not drawn), `CCOC(=O)C(=NOC)C1=CSCCO1` is lower in melting point: 145 to 146 °C for the first, 64 to 66 °C for the second.

Compared with `NC(=O)CN1C(=O)COc2cc(F)c(N3C(=O)C4=C(CCCC4)C3=O)cc21`, `O=C1CCN(C(=O)C(Cc2ccccc2)NC(=O)c2cc3cc(Cl)ccc3[nH]2)CC1` (stereo not drawn) is lower in melting point: 283 to 286 °C for the first, 258 to 261 °C for the second.

Compared with `O=C1Nc2ccc(NC(=O)c3cccn(-c4ccc(F)cc4)c3=O)cc2/C1=C/c1ccc[nH]1`, `COc1ccc(-c2nc(-c3ccc(F)cc3)c(-c3ccc(S(C)(=O)=O)cc3)s2)cc1` is lower in melting point: greater than 300 °C for the first, 187 to 189 °C for the second.

Compared with `CCOC(=O)C1SCCc2cc(OC)c(OC)cc21` (stereo not drawn), `Cc1cc(C(C)(CC(=O)O)c2ccc(O)c(C)c2)ccc1O` is higher in melting point: 96 to 98 °C for the first, 130 °C for the second.

First: O=c1sc(CO)c(C(F)(F)F)n1CC=C(Cl)Cl
Second: Cc1noc(NS(=O)(=O)c2cc(Cl)sc2Cl)c1Br
The melting point of the first is lower: 81 °C for the first, 135 to 138 °C for the second.

First: Clc1ccc2c(Br)ccnc2c1
Second: O=C1NC(=O)C(S(=O)(=O)c2cccc3c(Br)cccc23)S1 (stereo not drawn)
The melting point of the first is lower: 102 to 103 °C for the first, 189 to 190 °C for the second.

`C#CCN(c1cc(-c2ccnc3c(C(=O)c4cccs4)cnn23)ccc1F)S(C)(=O)=O` and `Cc1cccc(C)c1N(CCC(C)N1C(=O)c2ccccc2C1=O)S(C)(=O)=O` (stereo not drawn) cannot be ordered by melting point: 149 to 153 °C for the first, 148 to 152 °C for the second.

First: Cc1ccc(C(=O)n2c3c(c4ccccc42)CC(C(=O)O)(C(=O)O)CC3)cc1
Second: O=C(NC1(Cc2ccccc2)C=CCC1)C(Cl)(Cl)Cl (stereo not drawn)
The melting point of the first is higher: 190 to 195 °C for the first, 127 to 128 °C for the second.

Compared with `CN(C)C1CCN(c2ccc(-c3[nH]nc4c3C(=O)c3c(NC(=O)NN5CCOCC5)cccc3-4)cc2)CC1`, `Clc1ccc2c(C3CCNCC3)c[nH]c2c1Cl` is lower in melting point: 258 °C for the first, 254 to 257 °C for the second.

Compared with `CCCCCCCCCCCCCCCCOC[C@@H]1OCCC[C@H]1O` (relative stereo), `NS(=O)(=O)CCCSc1ccc2ncc(Cl)n2n1` is higher in melting point: 41.5 to 43 °C for the first, 136 to 137 °C for the second.
